# Experimental data reported in paper PMC8250858, “A Systematic Study of the Stability, Safety, and Efficacy of the de novo Designed Antimicrobial Peptide PepD2 and Its Modified Derivatives Against Acinetobacter baumannii” (Frontiers in Microbiology, 2021).
# Key:
# [1] = tested on: A. baumannii (ATCC 17978); assay type: cell-based, Acinetobacter baumannii; settings: ex vivo rat blood, 4 μg/mL of each peptide
# Protocol: The time-kill kinetics measurement against A. baumannii (ATCC 17978) in blood was conducted following a protocol modified from the literature ([Nagarajan et al., 2019]). […] Then, 4 μL of the peptide stock solution to be tested (2,035 μg/mL in water) was added to make the final bacterial cell number 10^7 CFU/mL and the final peptide concentration 4 μg/mL (assigned as tube A). At 2, 4, 6, 8, 10, 20, 30, 40, 50, and 60 min, 100 μL of the bacteria/blood mixture was removed from tube A and mixed with 100 μL of sterilized 2 M NaCl/50% glycerol (twofold dilution, assigned as tube B). […] Ten microliters of the mixture from tube B were mixed with 990 μL of sterilized 1 M NaCl (200-fold dilution, assigned as tube C). Ten microliters of the mixture from tube C was mixed with 90 μL of sterilized 1 M NaCl (2,000-fold dilution, assigned as tube D). Finally, ten or one hundred microliters of solution from each tube was plated on an MHA plate and incubated at 37°C overnight to count the colony number. To test whether freezing in liquid nitrogen kills part of the bacteria, pepdD2 was tested with and without freezing. […] At 0 and 60 min, the bacterial number was measured as described above. […] At the indicated time points, an aliquot of the sample was removed and diluted, and the remaining cell number was counted by plating on MHA plates. The data are expressed as the mean ± SD. […]
# A. baumannii ATCC 17978 = assay type: cell-based, Acinetobacter baumannii; settings: spotted on MHA plate, 24 h
# Protocol: Following CLSI guideline M07-A11, single bacterial colonies of A. baumannii ATCC 17978 grown on Müller–Hinton agar (MHA) plates were picked and inoculated in 4 mL of Müller–Hinton broth (MHB) at 37°C and shaken at 180 rpm for 4∼6 h. The bacterial broth was diluted in the same medium to give a cell density of 1∼2 × 10^8 CFU/mL (OD600 = 0.38∼0.4 for A. baumannii) (Supplementary Figure 1; [Dillon et al., 2020]). Then, the broth was diluted 20-fold. Peptides were dissolved in water and filtered through a 0.2-μm filter to make a stock solution. The peptide concentration was quantified by the UV280. Then, the peptide solution was serially diluted in MHB to final peptide concentrations of 1, 2, 4, 8, 16, and 32 μg/mL. One hundred microliters of serially diluted peptide and 10 μL of bacterial culture were mixed in a 96-well polystyrene plate. Each well contained approximately 5 × 10^5 CFU/mL. The positive control was a mixture of 100 μL of MHB and 10 μL of the bacterial culture. The negative control was 110 μL of MHB. The plates were incubated at 37°C without shaking. […] The bacterium-peptide mixtures (the mixture without visible growth and the mixture containing a two-fold […] peptide concentration than the mixture without growth), positive control, and negative control (3 μL each) were spotted on an MHA plate and incubated at 37°C for 24 h. The MBC was determined as the lowest peptide concentration at which no colonies formed.
# The MIC and MBC of our designed peptides against A. baumannii were obtained by using the broth microdilution method in the CLSI protocol. The bacterial cell number was carefully counted, and a final cell density of 5 × 10^5 CFU/mL in each well was used in the MIC test (Supplementary Figure 1). The minimal peptide concentration at which no bacterial growth was observed was taken as the MIC value. The culture after peptide treatment was spotted on an MHA plate, and the peptide concentration that could kill all the bacteria was defined as the MBC. The MIC/MBC and hemolytic activity of these peptides are shown and compared in Figure 1.
# Hemolytic assay = assay type: cell-based, rat; settings: rat red blood cells, 256 μg/mL peptide, 37°C 45 min; read-out: Hemolysis (%) at 256 μg/mL
# Protocol: The blood cells were washed three times with PBS, where the volume of PBS was the same as that of the original blood, by gently turning the centrifuge tube upside down. After washing, ten microliters of blood cells were diluted 2,000-fold in PBS to count the cells. Finally, red blood cells were diluted to 5 × 10^8 cells/mL in PBS. Peptides were dissolved in water and filtered through a 0.2-μm filter to make a stock solution. The peptide concentration was quantitated by the UV280. The peptide solution was diluted in PBS to different concentrations (five times the tested concentrations). Twenty microliters of the peptide in PBS was mixed with 80 μL of red blood cell solution in a 96-well plate (V-bottom). The final peptide concentration was 16–256 μg/mL. In the positive control group, 20 μL of 5% Triton X-100 was added to the red blood cell solution for a final Triton X-100 concentration of 1%. For the negative control group, 20 μL of PBS solution was added. The 96-well plate was incubated at 37°C for 45 min. After centrifuging the 96-well plate at 1,500 × g for 5 min, 30 μL of the supernatant was mixed with 100 μL of deionized water in a 96-well plate (flat bottom). The concentration of heme in each well was measured by the UV405 using an Infinite M1000 pro (Tecan Austria GmbH, Austria). The hemolytic activity was calculated using the following formula. Hemolyticactivity=[(F-F0)/(Ft-F0)]×100% F is the UV405 of the peptide-treated sample F0 is the UV405 of the sample without peptide (negative control) Ft is the UV405 of the Triton-treated sample (positive control)
substance,measurement,setting,value
Ac-WKKIKKIIKKIKKI-NH2 [pepI2],Killing rate compared,[1],killed bacteria faster than pepdD2
same,MBC A. baumannii 17978,A. baumannii ATCC 17978,4 µg/mL
same,"hemolysis at 45 min, 256 μg/mL",Hemolytic assay,0.27%
